Test results published in PubChem BioAssay (NCI).
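Cells were grown in 96-well plates and exposed to each compound for 48 hours at five concentrations; endpoints were interpolated linearly between bracketing concentrations, or set to the highest concentration if not reached. The concentration for 50% growth inhibition is given as GI50. TGI: total growth inhibition.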

What was measured:
Test in all cases: inhibition of tumour cell growth, NCI panel, 48 h
NCI-H23 lung = system: NCI-H23 lung
SK-MEL-2 melanoma = system: SK-MEL-2 melanoma
DU-145 prostate = system: DU-145 prostate
SF-295 CNS = system: SF-295 CNS
SK-MEL-28 melanoma = system: SK-MEL-28 melanoma
OVCAR-8 ovarian = system: OVCAR-8 ovarian
MOLT-4 leukemia = system: MOLT-4 leukemia
HCT-116 colon = system: HCT-116 colon
HOP-62 NSCLC = system: HOP-62 NSCLC
UACC-257 melanoma = system: UACC-257 melanoma

Structure (SMILES) | GI50 (NCI-H23 lung) | TGI (NCI-H23 lung) | GI50 (SK-MEL-2 melanoma) | TGI (SK-MEL-2 melanoma) | GI50 (DU-145 prostate) | TGI (DU-145 prostate) | GI50 (SF-295 CNS) | TGI (SF-295 CNS) | GI50 (SK-MEL-28 melanoma) | TGI (SK-MEL-28 melanoma) | TGI (OVCAR-8 ovarian) | TGI (MOLT-4 leukemia) | TGI (HCT-116 colon) | TGI (HOP-62 NSCLC) | TGI (UACC-257 melanoma) | GI50 (OVCAR-8 ovarian) | GI50 (MOLT-4 leukemia) | GI50 (UACC-257 melanoma) | GI50 (HCT-116 colon) | GI50 (HOP-62 NSCLC)
Cc1ccc(S(=O)(=O)OC[C@@]2(C)CC[C@]3(C)CC[C@]4(C)C(=C3C2)C=C[C@@H]2[C@@]3(C)CCCNC(C)(C)[C@@H]3CC[C@]24C)cc1 | 1.82 µM | 3.42 µM | 1.88 µM | 3.52 µM | 1.81 µM | 3.4 µM | 1.78 µM | 3.29 µM | 1.78 µM | 3.26 µM |  |  |  |  |  |  |  |  |  | 
CCOC(=O)C(O)(CC1=NC(C(=O)OC)(C(=O)OC)C(c2cccc(C=O)c2)O1)C(=O)OCC (stereo unspecified) |  | > 100 µM |  | > 100 µM |  | > 100 µM |  |  |  | > 100 µM | > 100 µM | > 100 µM | > 100 µM | > 100 µM | > 100 µM |  |  |  |  | 
O=C(/C=C/c1ccc(OCc2ccccc2)cc1)NCc1ccc(C(=O)NCCc2ccccc2)cc1 |  | > 100 µM |  | > 100 µM |  | > 100 µM |  | > 100 µM |  | > 100 µM | > 100 µM |  | > 100 µM | > 100 µM | > 100 µM |  |  |  |  | 
Cc1ccc(S(=O)(=O)N/N=C2\C=CC3(CC2)C(=O)N(I)c2ccccc23)cc1 (stereo unspecified) |  | > 100 µM |  | > 100 µM |  |  |  | > 100 µM |  | > 100 µM | > 100 µM | > 100 µM | > 100 µM | > 100 µM | > 100 µM |  |  |  |  | 
NC(=S)NNCC(=O)CC(O)(C(F)(F)F)C(F)(F)Cl (stereo unspecified) |  | > 100 µM |  | > 100 µM |  | > 100 µM |  | > 100 µM |  | > 100 µM | > 100 µM | > 100 µM | > 100 µM |  | > 100 µM |  |  |  |  | 
CNC(=S)N/N=C/C(C)=N/NC(=S)NC |  | > 100 µM |  | > 100 µM |  |  |  | > 100 µM |  | > 100 µM |  | > 100 µM | > 100 µM | > 100 µM |  |  |  |  |  | 
CN(C(=O)Cc1ccccc1)n1cn[n+](CC(=O)OC(C)(C)C)c1 |  | > 10 µM |  |  |  | > 10 µM |  | > 10 µM |  | > 10 µM | > 10 µM | > 10 µM | > 10 µM | > 10 µM | > 10 µM |  |  |  |  | 
Cc1c2cc[n+](Cc3ccc(I)cc3)cc2c(C)c2c1[nH]c1ccccc12 |  | 9.13 µM |  | 1.64 µM |  |  |  | > 9.98 µM |  | 11.7 µM | 11.8 µM | 1.65 µM | > 16.8 µM | > 21.7 µM | 2.09 µM |  |  |  |  | 
S=c1ncc(-c2cncc(-c3cnc(=S)[nH]c3)n2)c[nH]1 |  | > 100 µM |  | > 100 µM |  | > 100 µM |  | > 100 µM |  | > 100 µM | > 100 µM | > 100 µM | > 100 µM |  | > 100 µM |  |  |  |  | 
C/C(=C\C(=O)Nc1ccc2n[nH]nc2c1)Nc1ccc2n[nH]nc2c1 |  | > 100 µM |  |  |  |  |  | > 100 µM |  | > 100 µM | > 100 µM | > 100 µM | > 100 µM | > 100 µM | > 100 µM |  |  |  |  | 
CC1(C)N=C(C(N)=O)c2[nH]cnc2N1 |  | > 100 µM |  | > 100 µM |  | > 100 µM |  | > 100 µM |  | > 100 µM | > 100 µM |  | > 100 µM | > 100 µM | > 100 µM |  |  |  |  | 
CCOC(=O)c1ccc(N(CCOS(C)(=O)=O)CCOS(C)(=O)=O)cc1 |  | > 100 µM |  | > 100 µM |  | 47 µM |  | > 100 µM |  | > 100 µM | > 100 µM | 48.1 µM | > 100 µM |  | > 100 µM |  |  |  |  | 
CC(C)(C)OC(=O)Cn1ncn(NC(=O)Cc2ccccc2)c1=S |  | > 10 µM |  |  |  | > 10 µM |  | > 10 µM |  | > 10 µM | > 10 µM | > 10 µM | > 10 µM | > 10 µM | > 10 µM |  |  |  |  | 
CSc1c(C(C)=O)c(O)n(-c2ccc(C)cc2)c(=O)c1C#N |  | > 100 µM |  | > 100 µM |  | > 100 µM |  |  |  | > 100 µM | > 100 µM | > 100 µM | > 100 µM |  | > 100 µM |  |  |  |  | 
COC(=O)CN1CCN(c2cccc3c2CCCC3)CC1 |  | 48.7 µM |  | > 100 µM |  |  |  | > 100 µM |  |  | > 100 µM | > 100 µM | > 100 µM | > 100 µM | > 100 µM |  |  |  |  | 
Nc1nc(SCc2ccccc2Cl)c2ncn(C3OC(CO)C(O)C3O)c2n1 (stereo unspecified) |  | > 100 µM |  | > 100 µM |  |  |  | > 100 µM |  | > 100 µM | > 100 µM | > 100 µM | > 100 µM | > 100 µM |  |  |  |  |  | 
N#C[S-].[La+3].c1ccc(-c2ccccn2)nc1.c1ccc(-c2ccccn2)nc1.c1ccc(-c2ccccn2)nc1 | 29.1 µM | > 100 µM | 21.5 µM | 53.6 µM |  |  | 12.3 µM | 71.3 µM | 30.9 µM | > 100 µM | > 100 µM | > 100 µM |  |  | 65.2 µM | 25.9 µM | 10.5 µM | 24.3 µM |  | 
Cc1ccc(/C=c2\cc3oc(=O)c4cccc(c4-3)c2=O)cc1 |  | > 100 µM |  | > 100 µM |  | > 100 µM |  | > 100 µM |  | > 100 µM | > 100 µM |  | > 100 µM | > 100 µM | > 100 µM |  |  |  |  | 
CSc1cc(Cl)c(C)cc1S(=O)(=O)NC(=O)NNc1ccc(C)cc1 |  |  |  | > 100 µM |  | > 100 µM |  | > 100 µM |  | > 100 µM | > 100 µM | > 100 µM | > 100 µM | > 100 µM |  |  |  |  |  | 
C[N+]1(C)CCCC(C#N)(c2ccccc2)CC1 (stereo unspecified) |  | > 100 µM |  |  |  | > 100 µM |  | > 100 µM |  | > 100 µM | > 100 µM | > 100 µM | > 100 µM | > 100 µM | > 100 µM |  |  |  |  | 
[CH3][Sn]([CH3])([CH3])[S]C(=S)N1CCOCC1 | 0.345 µM | 4.94 µM | 1.51 µM | 4.75 µM |  |  | 3.51 µM | 13.2 µM | 3.49 µM | 33.6 µM | > 85.4 µM | 4.05 µM | 2.03 µM | 4.86 µM | 14.9 µM | 3.69 µM | 0.135 µM | 1.22 µM | 0.146 µM | 2.28 µM
Nc1nc(Cl)c(CO)c(NCC2(CO)CCC2)n1 |  | > 100 µM |  |  |  | > 100 µM |  | > 100 µM |  | > 100 µM | > 100 µM | > 100 µM | > 100 µM | > 100 µM | > 100 µM |  |  |  |  | 
